Experimental data: US4258180A, “C6-Modified cyclodextrin sulfate salts as complement inhibitors” (American Cyanamid Company, priority 1979, dated 1981)
Where a name gives a salt, the structure may show the parent alone.

Experiments:
Format in all cases: biochemical
activated human C1 = activated human C1 (Homo sapiens, UniProt P09871); experiment: Test Code 026 (C1 inhibitor); conditions: serial dilution assay, twofold dilutions; higher well number indicates higher activity
Source text: (§1) An active inhibitor protects C2 from C1 and C4; (ii) Test Code 035 (C3-C9 inhibitor)--This test determines the ability of the late components of human complement (C3-C9) to lyse EAC 142 in the presence of appropriate dilutions of the test compound. An active inhibitor protects EAC 142 from lysis by human C3-C9; (iii) Test Code 036 (C-Shunt inhibitor)--In this test human erythrocytes rendered fragile are lysed in autologous serum via the shunt pathway activated by cobra venom factor in the presence of appropriate dilutions of the test compound. Inhibition of the shunt pathway results in failure of lysis; (iv) Forssman Vasculitis Test--Here, the well known complement dependent lesion, Forssman Vasculitis, is produced in guinea pigs by intradermal injection of rabbit anti-Forssman antiserum. The lesion is measured in terms of diameter, edema and hemorrhage and the extent to which a combined index of these is inhibited by prior intraperitoneal injection of the test compound at 200 mg/kg is then reported, unless otherwise stated; (v) Forssman Shock Test--Lethal shock is produced in guinea pigs by an i.v. injection of anti-Forssman antiserum and the harmonic mean death time of treated guinea pigs is compared with that of simultaneous controls; (vi) Complement Level Reduction Test--In this test, the above dosed guinea pigs, or others, are bled for serum and the complement level is determined in undiluted serum by the capillary tube method of U.S. Pat. No. 3,876,376 and compared to undosed control guinea pigs; and (vii) Cap 50 Test--Here, appropriate amounts of the test compound are added to a pool of guinea pig serum in vitro, after which the undiluted serum capillary tube assay referred to above is run. The concentration of compound inhibiting 50% is reported.

[1] = test system: late components of human complement (C3-C9); experiment: Test Code 035 (C3-C9 inhibitor), lysis of EAC 142; conditions: serial dilution assay, twofold dilutions; higher well number indicates higher activity; N = Negative
Source text: as §1

shunt pathway = experiment: Test Code 036 (C-Shunt inhibitor), lysis of fragile human erythrocytes in autologous serum, cobra venom factor; conditions: serial dilution assay, twofold dilutions; higher well number indicates higher activity; N = Negative
Source text: as §1

SMILES: [N-]=[N+]=NC[C@H]1O[C@@H]2O[C@H]3[C@H](OS(=O)(=O)O)[C@@H](OS(=O)(=O)O)[C@@H](O[C@H]4[C@H](OS(=O)(=O)O)[C@@H](OS(=O)(=O)O)[C@@H](O[C@H]5[C@H](OS(=O)(=O)O)[C@@H](OS(=O)(=O)O)[C@@H](O[C@H]6[C@H](OS(=O)(=O)O)[C@@H](OS(=O)(=O)O)[C@@H](O[C@H]7[C@H](OS(=O)(=O)O)[C@@H](OS(=O)(=O)O)[C@@H](O[C@H]1[C@H](OS(=O)(=O)O)[C@H]2OS(=O)(=O)O)O[C@@H]7CN=[N+]=[N-])O[C@@H]6CN=[N+]=[N-])O[C@@H]5CN=[N+]=[N-])O[C@@H]4CN=[N+]=[N-])O[C@@H]3CN=[N+]=[N-] [α-Cyclo[6-azido-6-deoxy]dextrin poly(H-sulfate)poly-sodium s] [6,6',6",6'",6"",6'""-Hexaazido-6,6',6",6'",6"",6'""-hexadeoxy-α-cyclodextrin, dodecakis(H-sulfate), dodecasodium salt]
- 026 Activity in wells (activated human C1): 7 wells
- 035 Activity in wells [1]: 1 wells
- 036 Activity in wells (shunt pathway): 4 wells

SMILES: [N-]=[N+]=NC[C@H]1O[C@@H]2O[C@H]3[C@H](OS(=O)(=O)O)[C@@H](OS(=O)(=O)O)[C@@H](O[C@H]4[C@H](OS(=O)(=O)O)[C@@H](OS(=O)(=O)O)[C@@H](O[C@H]5[C@H](OS(=O)(=O)O)[C@@H](OS(=O)(=O)O)[C@@H](O[C@H]6[C@H](OS(=O)(=O)O)[C@@H](OS(=O)(=O)O)[C@@H](O[C@H]7[C@H](OS(=O)(=O)O)[C@@H](OS(=O)(=O)O)[C@@H](O[C@H]1[C@H](OS(=O)(=O)O)[C@H]2OS(=O)(=O)O)O[C@@H]7CN=[N+]=[N-])O[C@@H]6CN=[N+]=[N-])O[C@@H]5CN=[N+]=[N-])O[C@@H]4CN=[N+]=[N-])O[C@@H]3CN=[N+]=[N-] [α-Cyclo[6-azido-6-deoxy]dextrin poly(H-sulfate)poly-trimethy] [6,6',6",6'",6"",6'""-Hexaazido-6,6',6",6'",6"",6'""-hexadeoxy-α-cyclodextrin, dodecakis(H-sulfate), dodecasalt with trimethylamine]
- 026 Activity in wells (activated human C1): 2 wells
- 035 Activity in wells [1]: N
- 036 Activity in wells (shunt pathway): N

SMILES: O=S(=O)(O)O[C@@H]1[C@@H](OS(=O)(=O)O)[C@H]2O[C@H]3[C@H](OS(=O)(=O)O)[C@@H](OS(=O)(=O)O)[C@@H](O[C@H]4[C@H](OS(=O)(=O)O)[C@@H](OS(=O)(=O)O)[C@@H](O[C@H]5[C@H](OS(=O)(=O)O)[C@@H](OS(=O)(=O)O)[C@@H](O[C@H]6[C@H](OS(=O)(=O)O)[C@@H](OS(=O)(=O)O)[C@@H](O[C@H]7[C@H](OS(=O)(=O)O)[C@@H](OS(=O)(=O)O)[C@@H](O[C@@H]1[C@@H](CBr)O2)O[C@@H]7CBr)O[C@@H]6CBr)O[C@@H]5CBr)O[C@@H]4CBr)O[C@@H]3CBr [α-Cyclo[6-bromo-6-deoxy]dextrin poly (H-sulfate)poly-sodium ] [6,6',6",6'",6"",6'""-Hexabromo-6,6',6",6'",6"",6'""-hexadeoxy-α-cyclodextrin dodecakis(H-sulfate), dodecasodium salt]
- 026 Activity in wells (activated human C1): 6 wells
- 035 Activity in wells [1]: 5 wells
- 036 Activity in wells (shunt pathway): 4 wells

SMILES: O=S(=O)(O)O[C@@H]1[C@@H](OS(=O)(=O)O)[C@H]2O[C@H]3[C@H](OS(=O)(=O)O)[C@@H](OS(=O)(=O)O)[C@@H](O[C@H]4[C@H](OS(=O)(=O)O)[C@@H](OS(=O)(=O)O)[C@@H](O[C@H]5[C@H](OS(=O)(=O)O)[C@@H](OS(=O)(=O)O)[C@@H](O[C@H]6[C@H](OS(=O)(=O)O)[C@@H](OS(=O)(=O)O)[C@@H](O[C@H]7[C@H](OS(=O)(=O)O)[C@@H](OS(=O)(=O)O)[C@@H](O[C@@H]1[C@@H](CBr)O2)O[C@@H]7CBr)O[C@@H]6CBr)O[C@@H]5CBr)O[C@@H]4CBr)O[C@@H]3CBr [α-Cyclo[6-bromo-6-deoxy]dextrin poly(H-sulfate)poly-trimethy] [α-Cyclo[6-bromo-6-deoxy]dextrin poly(H-sulfate)poly-trimethylamine salt]
- 026 Activity in wells (activated human C1): 2 wells
- 035 Activity in wells [1]: 2 wells
- 036 Activity in wells (shunt pathway): N

SMILES: N#CSC[C@H]1O[C@@H]2O[C@H]3[C@H](OS(=O)(=O)O)[C@@H](OS(=O)(=O)O)[C@@H](O[C@H]4[C@H](OS(=O)(=O)O)[C@@H](OS(=O)(=O)O)[C@@H](O[C@H]5[C@H](OS(=O)(=O)O)[C@@H](OS(=O)(=O)O)[C@@H](O[C@H]6[C@H](OS(=O)(=O)O)[C@@H](OS(=O)(=O)O)[C@@H](O[C@H]7[C@H](OS(=O)(=O)O)[C@@H](OS(=O)(=O)O)[C@@H](O[C@H]1[C@H](OS(=O)(=O)O)[C@H]2OS(=O)(=O)O)O[C@@H]7CSC#N)O[C@@H]6CSC#N)O[C@@H]5CSC#N)O[C@@H]4CSC#N)O[C@@H]3CSC#N [α-Cyclo[6-deoxy-6-thiocyanato]dextrin poly(H-sulfate)poly-so] [6,6',6",6'",6"",6'""-Hexadeoxy-6,6',6",6'",6"",6'""-hexathiocyanato-α-cyclodextrin, dodecakis(H-sulfate), dodecasodium salt]
- 026 Activity in wells (activated human C1): 7 wells
- 035 Activity in wells [1]: 2 wells
- 036 Activity in wells (shunt pathway): 4 wells

SMILES: N#CSC[C@H]1O[C@@H]2O[C@H]3[C@H](OS(=O)(=O)O)[C@@H](OS(=O)(=O)O)[C@@H](O[C@H]4[C@H](OS(=O)(=O)O)[C@@H](OS(=O)(=O)O)[C@@H](O[C@H]5[C@H](OS(=O)(=O)O)[C@@H](OS(=O)(=O)O)[C@@H](O[C@H]6[C@H](OS(=O)(=O)O)[C@@H](OS(=O)(=O)O)[C@@H](O[C@H]7[C@H](OS(=O)(=O)O)[C@@H](OS(=O)(=O)O)[C@@H](O[C@H]1[C@H](OS(=O)(=O)O)[C@H]2OS(=O)(=O)O)O[C@@H]7CSC#N)O[C@@H]6CSC#N)O[C@@H]5CSC#N)O[C@@H]4CSC#N)O[C@@H]3CSC#N [α-Cyclo[6-deoxy-6-thiocyanato]dextrin poly(H-sulfate)poly-tr] [6,6',6",6'",6"",6'""-Hexadeoxy-6,6',6",6'",6"",6'""-hexathiocyanato-α-cyclodextrin, dodecakis(H-sulfate), dodecasalt with trimethylamine]
- 026 Activity in wells (activated human C1): 1 wells
- 035 Activity in wells [1]: N
- 036 Activity in wells (shunt pathway): N

SMILES: C[C@H]1O[C@@H]2O[C@H]3[C@H](OS(=O)(=O)O)[C@@H](OS(=O)(=O)O)[C@@H](O[C@H]4[C@H](OS(=O)(=O)O)[C@@H](OS(=O)(=O)O)[C@@H](O[C@H]5[C@H](OS(=O)(=O)O)[C@@H](OS(=O)(=O)O)[C@@H](O[C@H]6[C@H](OS(=O)(=O)O)[C@@H](OS(=O)(=O)O)[C@@H](O[C@H]7[C@H](OS(=O)(=O)O)[C@@H](OS(=O)(=O)O)[C@@H](O[C@H]1[C@H](OS(=O)(=O)O)[C@H]2OS(=O)(=O)O)O[C@@H]7C)O[C@@H]6C)O[C@@H]5C)O[C@@H]4C)O[C@@H]3C [α-Cyclo[6-deoxy]dextrin poly(H-sulfate)poly-sodium salt] [6,6',6",6'",6"",6'""-Hexadeoxy-α-cyclodextrin, dodecakis(H-sulfate), dodecasodium salt]
- 026 Activity in wells (activated human C1): 8 wells
- 035 Activity in wells [1]: 1 wells
- 036 Activity in wells (shunt pathway): 4 wells

SMILES: C[C@H]1O[C@@H]2O[C@H]3[C@H](OS(=O)(=O)O)[C@@H](OS(=O)(=O)O)[C@@H](O[C@H]4[C@H](OS(=O)(=O)O)[C@@H](OS(=O)(=O)O)[C@@H](O[C@H]5[C@H](OS(=O)(=O)O)[C@@H](OS(=O)(=O)O)[C@@H](O[C@H]6[C@H](OS(=O)(=O)O)[C@@H](OS(=O)(=O)O)[C@@H](O[C@H]7[C@H](OS(=O)(=O)O)[C@@H](OS(=O)(=O)O)[C@@H](O[C@H]1[C@H](OS(=O)(=O)O)[C@H]2OS(=O)(=O)O)O[C@@H]7C)O[C@@H]6C)O[C@@H]5C)O[C@@H]4C)O[C@@H]3C [α-Cyclo[6-deoxy]dextrin poly(H-sulfate)poly-trimethylamine s] [6,6',6",6'",6"",6'""-Hexadeoxy-α-cyclodextrin, dodecakis(H-sulfate), dodecasalt with trimethylamine]
- 026 Activity in wells (activated human C1): 7 wells
- 035 Activity in wells [1]: N
- 036 Activity in wells (shunt pathway): 3 wells

SMILES: [N-]=[N+]=NC[C@H]1O[C@@H]2O[C@H]3[C@H](OS(=O)(=O)O)[C@@H](OS(=O)(=O)O)[C@@H](O[C@H]4[C@H](OS(=O)(=O)O)[C@@H](OS(=O)(=O)O)[C@@H](O[C@H]5[C@H](OS(=O)(=O)O)[C@@H](OS(=O)(=O)O)[C@@H](O[C@H]6[C@H](OS(=O)(=O)O)[C@@H](OS(=O)(=O)O)[C@@H](O[C@H]7[C@H](OS(=O)(=O)O)[C@@H](OS(=O)(=O)O)[C@@H](O[C@H]8[C@H](OS(=O)(=O)O)[C@@H](OS(=O)(=O)O)[C@@H](O[C@H]1[C@H](OS(=O)(=O)O)[C@H]2OS(=O)(=O)O)O[C@@H]8CN=[N+]=[N-])O[C@@H]7CN=[N+]=[N-])O[C@@H]6CN=[N+]=[N-])O[C@@H]5CN=[N+]=[N-])O[C@@H]4CN=[N+]=[N-])O[C@@H]3CN=[N+]=[N-] [β-Cyclo[6-azido-6-deoxy]dextrin poly(H-sulfate)poly-sodium s] [6,6',6",6'",6"",6'"",6"""-Heptaazido-6,6',6",6'",6"",6'"",6"""-heptadeoxy-β-cyclodextrin, tetradecakis(H-sulfate), tetradecasoium salt]
- 026 Activity in wells (activated human C1): 6 wells
- 035 Activity in wells [1]: 2 wells
- 036 Activity in wells (shunt pathway): 4 wells
